Test results from patent US20210393642A1, “COMPOSITION FOR PREVENTING OR TREATING SJOGREN'S SYNDROME” (SAMJIN PHARMACEUTICAL CO., LTD., priority 2018, published 2021).

How the values were obtained:
[1] = test system: IL-18; test: Quantitative RT-PCR of mRNA in lacrimal and salivary gland tissues, IL-18; type: in vivo, mice; settings: N=6
[2] = test system: IL-17A; test: Protein expression in lacrimal and salivary gland tissues (immunoblotting), IL-17A; type: in vivo, mice; settings: dose of 100 mg/kg as printed; compared to control group; FIG. 3
Description: (§1) The lacrimal gland and salivary gland tissues of the test animals were isolated, placed in PBS, and homogenized on ice. 1 ml of RIPA lysis buffer (50 mM Tris-Cl pH7.4, 150 mM NaCl, 1 mM EDTA, 1% Triton X-100, 0.1% SDS, 1% sodium deoxycholate, 0.5 mM phenylmethylsulfonyl fluoride, 2 μg/ml leupeptin, 2 μg/ml aprotinin, 10 mM NaF, and 1 mM sodium orthovanadate) was added to each homogenized tissue which was then kept on ice for 5 minutes. Each tissue solution was then centrifuged (at 13000 rpm for 20 mins), and only the supernatant was collected, and then protein correction was performed. Samples were incubated with anti-Akt (1:400) and anti-interleukin 17A (1:200) antibodies and subjected to immunoprecipitation (IP) (overnight), followed by sampling. Each of the samples was subjected to SDS-PAGE and transferred to polyvinylidene fluoride (PVDF) membranes. Then, the Akt-IP-samples were incubated with phospho-Akt (S473) (diluted at 1:100,000 in blocking buffer (TBS+Tween20)+0.1% skim milk) at 4° C. overnight, and the IL-17A-IP-samples were incubated with IL-17A primary antibody (diluted at 1:100,000 in blocking buffer (TBS+Tween20)+0.1% skim milk) at 4° C. overnight. Next, the samples were incubated with HRP-conjugated secondary antibody, and then protein bands were visualized with ECL solution in the dark and quantified by exposure to X-ray films.

[3] = test system: IL-21; test: Quantitative RT-PCR of mRNA in lacrimal and salivary gland tissues, IL-21; type: in vivo, mice; settings: N=6
[4] = test system: TNF-α; test: Quantitative RT-PCR of mRNA in lacrimal and salivary gland tissues, TNF-α; type: in vivo, mice; settings: N=6
[5] = test system: CXCL13; test: Quantitative RT-PCR of mRNA in lacrimal and salivary gland tissues, CXCL13; type: in vivo, mice; settings: N=6
[6] = test system: interferon-g; test: Quantitative RT-PCR of mRNA in lacrimal and salivary gland tissues, interferon-g; type: in vivo, mice; settings: N=6
[7] = test system: disease model of Sjogren's syndrome (Nfkbiz^−/− or IkB-ξ-deficient mice, C57BL/6); test: Analysis of inflammatory phenotypes in animals (disease scores); type: in vivo; settings: compared to control group, from 2 weeks after administration; N=11; FIG. 7
Text: The degree of inflammation in the animal model was scored according to the following criteria and analyzed.
2: eyes with discharge that were difficult to open
3: periocular skin erosion
4: inflammation reaching perioral skin
5: erosion and loss of hair in whole face.

[8] = test system: IL-2; test: Quantitative RT-PCR of mRNA in lacrimal and salivary gland tissues, IL-2; type: in vivo, mice; settings: N=6, FIGS. 4a, 4b
[9] = test system: p-AKT; test: Protein expression in lacrimal and salivary gland tissues (immunoblotting), p-AKT; type: in vivo, mice; settings: versus control, N=3, FIG. 3
Description: as §1

[10] = test system: IL-6; test: Quantitative RT-PCR of mRNA in lacrimal and salivary gland tissues, IL-6; type: in vivo, mice; settings: N=6
[11] = test system: IL-13; test: Quantitative RT-PCR of mRNA in lacrimal and salivary gland tissues, IL-13; type: in vivo, mice; settings: N=6
[12] = test system: anti-SSB/La; test: Quantification (ELISA) of autoantibody anti-SSB/La in plasma; type: in vivo, mice
Text: (§2) As markers of Sjogren's syndrome, anti-SSA/Ro (Signosis, #EA-5202, US) and anti-SSB/La (Signosis, #EA-5204, US), which are autoantibodies based on RNP particles, and interleukin-17A cytokine (Signosis, #EA-2516, US) which is involved in the onset of autoimmune diseases, were quantified by Enzyme-linked ImmunoSorbent Assay (ELISA) in order to determine the secretion and production of these markers in serum.

[13] = test system: FLT3L; test: Quantitative RT-PCR of mRNA in lacrimal and salivary gland tissues, FLT3L; type: in vivo, mice; settings: N=6
[14] = test system: IL-17A; test: Quantitative RT-PCR of mRNA in lacrimal and salivary gland tissues, IL-17A; type: in vivo, mice; settings: N=6
[15] = test system: anti-SSA/Ro; test: Quantification (ELISA) of autoantibody anti-SSA/Ro in plasma; type: in vivo, mice
Text: as §2

[16] = test system: IL-17A; test: Quantification (ELISA) of cytokine IL-17A in plasma; type: in vivo, mice; settings: versus control, N=3, FIG. 5
Text: as §2

[17] = test system: IL-12; test: Quantitative RT-PCR of mRNA in lacrimal and salivary gland tissues, IL-12; type: in vivo, mice; settings: N=6
[18] = test system: CXCR5; test: Quantitative RT-PCR of mRNA in lacrimal and salivary gland tissues, CXCR5; type: in vivo, mice; settings: N=6
[19] = test system: IFN-α; test: Quantitative RT-PCR of mRNA in lacrimal and salivary gland tissues, IFN-α; type: in vivo, mice; settings: N=6
[20] = test system: IL-22; test: Quantitative RT-PCR of mRNA in lacrimal and salivary gland tissues, IL-22; type: in vivo, mice; settings: N=6
[21] = test system: BAFF; test: Quantitative RT-PCR of mRNA in lacrimal and salivary gland tissues, BAFF; type: in vivo, mice; settings: N=6
[22] = test system: disease model of Sjogren's syndrome (Nfkbiz^−/− or IkB-ξ-deficient mice, C57BL/6); test: Tear production measurement (Schirmer test, phenol red thread); type: in vivo; settings: oral, 80 mg/kg b.i.d, 5 weeks; versus control (Ctrl) group; N=11; FIG. 1
Description: Hereinafter, experiments for evaluating the anti-inflammatory effect and tissue regeneration effect of oral administration of the composition according to one embodiment of the present invention by using a disease model of Sjogren's syndrome (Nfkbiz^−/− or IkB-ξ-deficient mice, C57BL/6) will be described in detail.
Tear production was measured using a phenol red thread (Zone-Quick; Oasis, Glendora, Calif.) 1 minute after animal anesthesia. One end of the phenol red thread was placed against the lower eyelid of the lateral canthus of the animal eye and left to stand for 60 seconds. After the thread was soaked with tear by the capillary phenomenon, the length (mm) of the thread whose color changed was measured. When the amount of tear secretion decreases, dry eye caused by Sjogren syndrome symptoms is promoted. Thus, it was determined that the greater the amount of tear secretion, the greater the effect of the test substance.

[23] = IkB-ξ-deficient male mice, 80 mg/kg, n = 3, vehicle = 100.0

O=C(NC(Cc1cc(=O)[nH]c2ccccc12)C(=O)OCCN1CCOCC1)c1ccc(Cl)cc1.O=C(O)CC(=O)O (stereo not drawn) [SA001, 2-(morpholin-4-yl)ethyl 2-(4-chlorobenzoylamino)-3-(2-oxo-1,2-dihydroquinolin-4-yl)propionate malonate]
IL-18 mRNA, decrease compared with control ([1]; lacrimal glands): not significant | IL-18 mRNA, decrease compared with control ([1]; salivary glands): 1.6 fold | protein expression of IL-17A in the lacrimal gland and salivary gland tissues [2]: significantly decreased | IL-21 mRNA, decrease compared with control ([3]; lacrimal glands): 1.6 fold | IL-21 mRNA, decrease compared with control ([3]; salivary glands): 20 fold | TNF-α mRNA, decrease compared with control ([4]; lacrimal glands): 1.6 fold | TNF-α mRNA, decrease compared with control ([4]; salivary glands): 2.2 fold | CXCL13 mRNA, decrease compared with control ([5]; lacrimal glands): 2.5 fold | CXCL13 mRNA, decrease compared with control ([5]; salivary glands): 5 fold | interferon-g mRNA, decrease compared with control ([6]; lacrimal glands): 1.3 fold | interferon-g mRNA, decrease compared with control ([6]; salivary glands): 1.3 fold | onset of the disease (disease score, inflammatory phenotype on five-point scale) [7]: significantly slowed | IL-2 mRNA, decrease compared with control ([8]; lacrimal glands): 4.5 fold | IL-2 mRNA, decrease compared with control ([8]; salivary glands): 1.3 fold | expression of p-AKT (activated form of Akt) [9]: significantly increased | IL-6 mRNA, decrease compared with control ([10]; lacrimal glands): 2 fold | IL-6 mRNA, decrease compared with control ([10]; salivary glands): 2.5 fold | IL-13 mRNA, decrease compared with control ([11]; lacrimal glands): 2 fold | IL-13 mRNA, decrease compared with control ([11]; salivary glands): 10 fold | SSB/La, No. (%) [12, 23]: 67.9 ± 12.4% | anti-SSB in plasma, decrease compared to control group ([12]; N=3, FIG. 5): 30% | FLT3L mRNA, decrease compared with control ([13]; lacrimal glands): 2.5 fold | FLT3L mRNA, decrease compared with control ([13]; salivary glands): 13 fold | IL-17A mRNA, decrease compared with control ([14]; lacrimal glands): 2.8 fold | IL-17A mRNA, decrease compared with control ([14]; salivary glands): 3.3 fold | SSA/Ro, No. (%) [15, 23]: 61.0 ± 8.7% | anti-SSA in plasma, decrease compared to control group ([15]; N=3, FIG. 5): 40% | IL-17A in plasma [16]: decreased | IL-12 mRNA, decrease compared with control ([17]; lacrimal glands): 10 fold | IL-12 mRNA, decrease compared with control ([17]; salivary glands): not significant | CXCR5 mRNA, decrease compared with control ([18]; lacrimal glands): not significant | CXCR5 mRNA, decrease compared with control ([18]; salivary glands): 2.5 fold | IFN-α mRNA, decrease compared with control ([19]; lacrimal glands): 1.6 fold | IFN-α mRNA, decrease compared with control ([19]; salivary glands): 40 fold | IL-22 mRNA, decrease compared with control ([20]; lacrimal glands): 1.7 fold | IL-22 mRNA, decrease compared with control ([20]; salivary glands): 1.6 fold | BAFF mRNA, decrease compared with control ([21]; lacrimal glands): 1.6 fold | BAFF mRNA, decrease compared with control ([21]; salivary glands): not significant | tear production [22]: significantly increased
